Results taken from ChEMBL document CHEMBL3639182, “Nitrogen containing heteroaryl compounds” (2014).

Target: cAMP and cAMP-inhibited cGMP 3',5'-cyclic phosphodiesterase 10A (Homo sapiens, UniProt Q9Y233)
Assay: Scintillation Proximity Assay : PDE10 activity of the compounds of the present invention was determined using a Scintillation Proximity Assay (SPA)-based method similar to the one previously described (Fawcett, L. et al., Proc Natl Acad Sci USA (2000) 97(7):3702-3707). The human PDE10A full length assay was performed in 96-well micro titer plates. The reaction mixture of 50 μl contained 20 mM HEPES pH=7.5/10 mM MgCl2/0.05 mg/ml BSA (Sigma cat. # A-7906), 50 nM cGMP (Sigma, cat. # G6129) and 50 nM [3H]-cGMP (GE Healthcare, cat. # TRK392 S.A. 13.2 Ci/mmol), 3.75 ng/well PDE10A enzyme (Enzo Life Science, Lausen, Switzerland cat #SE-534) with or without a specific test compound.

Chain of cAMP and cAMP-inhibited cGMP 3',5'-cyclic phosphodiesterase 10A (Q9Y233 whole entry): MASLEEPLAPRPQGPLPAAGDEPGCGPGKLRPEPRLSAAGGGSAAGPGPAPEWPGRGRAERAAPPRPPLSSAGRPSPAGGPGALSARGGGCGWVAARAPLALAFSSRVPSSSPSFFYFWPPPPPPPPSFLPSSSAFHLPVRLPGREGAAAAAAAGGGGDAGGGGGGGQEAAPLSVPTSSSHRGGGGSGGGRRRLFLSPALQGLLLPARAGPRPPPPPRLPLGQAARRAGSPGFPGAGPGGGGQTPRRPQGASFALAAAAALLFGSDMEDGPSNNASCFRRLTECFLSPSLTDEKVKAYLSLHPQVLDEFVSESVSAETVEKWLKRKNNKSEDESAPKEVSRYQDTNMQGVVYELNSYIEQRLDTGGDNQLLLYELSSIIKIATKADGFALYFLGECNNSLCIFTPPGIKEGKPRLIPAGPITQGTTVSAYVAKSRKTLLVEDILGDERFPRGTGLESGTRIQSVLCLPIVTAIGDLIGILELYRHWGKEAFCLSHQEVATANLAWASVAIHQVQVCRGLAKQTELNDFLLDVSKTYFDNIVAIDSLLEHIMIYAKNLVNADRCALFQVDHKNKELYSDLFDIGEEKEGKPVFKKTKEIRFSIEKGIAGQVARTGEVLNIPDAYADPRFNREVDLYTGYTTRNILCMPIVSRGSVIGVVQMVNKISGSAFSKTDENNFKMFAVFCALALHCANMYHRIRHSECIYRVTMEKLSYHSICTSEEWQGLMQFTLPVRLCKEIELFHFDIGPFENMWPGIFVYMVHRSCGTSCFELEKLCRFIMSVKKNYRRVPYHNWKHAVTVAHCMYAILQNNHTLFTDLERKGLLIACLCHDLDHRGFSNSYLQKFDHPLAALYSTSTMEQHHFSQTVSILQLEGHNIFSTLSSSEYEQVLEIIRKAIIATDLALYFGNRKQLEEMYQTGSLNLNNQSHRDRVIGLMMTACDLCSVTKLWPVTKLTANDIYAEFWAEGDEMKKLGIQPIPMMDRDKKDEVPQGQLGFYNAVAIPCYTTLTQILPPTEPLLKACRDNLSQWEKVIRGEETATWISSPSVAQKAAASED

SMILES | IC50 [nM]
Cn1ncc(NC(=O)c2nc(C3CC3)cnc2Nc2cncnc2)c1C(=O)NC1COC1 | 6.6
CC(CO)CNC(=O)c1c(NC(=O)c2nc(C3CC3)cnc2Nc2cncnc2)cnn1C (centres undefined) | 1.5
CN(C)C(=O)c1c(NC(=O)c2nc(C3CC3)cnc2Nc2cncnc2)cnn1C | 32.2
CNC(=O)c1c(NC(=O)c2nc(C3CC3)cnc2Nc2cncnc2)cnn1CC(F)(F)F | 27
COCc1ccc(NC(=O)c2nc(C3CC3)cnc2Nc2cncnc2)c(C(=O)NCC(C)(C)O)n1 | 0.5
COCCOc1ccc(NC(=O)c2nc(C3CC3)cnc2Nc2cncnc2)c(C(=O)NCC(C)(C)O)c1 | 0.7
CN(C(=O)c1ncccc1NC(=O)c1nc(C2CC2)cnc1Nc1cncnc1)C1CCOCC1 | 425
CN(CC(F)(F)F)C(=O)c1ncccc1NC(=O)c1nc(C2CC2)cnc1Nc1cncnc1 | 8.1
CN(C(=O)c1ncccc1NC(=O)c1nc(C2CC2)cnc1Nc1cncnc1)C1CC1 | 26.8
CC1CCCCN1C(=O)c1ncccc1NC(=O)c1nc(C2CC2)cnc1Nc1cncnc1 (centres undefined) | 15.9
CC(C)(O)CNC(=O)c1cc(C#N)ccc1NC(=O)c1nc(C2CC2)cnc1Nc1cncnc1 | 0.7
CNC(=O)c1cc(NC(C)=O)ccc1NC(=O)c1nc(C2CC2)cnc1Nc1cncnc1 | 0.4
CNC(=O)c1nc(C)ncc1NC(=O)c1nc(C2CC2)cnc1Nc1cncnc1 | 19.3
CNC(=O)c1ccc(F)c(F)c1NC(=O)c1nc(C2CC2)cnc1Nc1cncnc1 | 1.8
